Measurements published in US11000033B2, “Ketone or oxime compound, and herbicide” (NISSAN CHEMICAL CORPORATION, priority 2014, dated 2021).

Legend:
Type in all cases: in vivo
Apera spica-venti = experiment: Test Example 5: herbicidal effect by foliage application, plastic box (symbol L); settings: 3 weeks after application
In short: (§1)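 Sowing in sterilized diluvial soil, 14 days' greenhouse growth at 25° C. to 30° C., then uniform small-sprayer foliar application of aqueous emulsion dilution; plants scored three weeks afterwards.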

wheat [1] = experiment: Test Example 4: effect on crop by soil treatment (symbol e)
In short: (§2)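 Crop seeds, among them rice, wheat, beet and rapeseed, were sown in sterilized diluvial soil and covered with about 1.5 cm of soil. Boxes were kept in a greenhouse at 25° C. to 30° C. for plant growth.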

Cyperus difformis = experiment: Test Example 3: herbicidal effect by foliage application, Wagner pot (symbol E); settings: for E herbicidal effect grade: Table 24
In short: (§3)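 In a shallow-flooded alluvial soil system held at 25–30 °C, plants including rice grew for 14 days and were then sprayed over the foliage with emulsion diluted to a fixed herbicide amount. Visual rating followed at 3 weeks.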

Monochoria vaginalis = experiment: Test Example 1: herbicidal activity, application before weed generation in submerged conditions (symbol C)
In short: (§4)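 Ratings (5: ≥90%, near complete withering; 4: 70–<90%; 3: 40–<70%; 2: 20–<40%; 1: 5–<20%; 0: ≤5%) were assigned 3 weeks after the diluted emulsion was applied to the water surface of freshly sown, submerged pots.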

rice = experiment: Test Example 4: effect on crop by soil treatment (symbol b)
In short: as §2

Avena fatua = experiment: Test Example 5: herbicidal effect by foliage application, plastic box (symbol I); settings: 3 weeks after application
In short: as §1

Amaranthus retroflexus = experiment: Test Example 4: herbicidal effect by soil treatment (symbol N)
In short: (§5)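 Seeds were sown in sterilized diluvial soil, covered with about 1.5 cm of soil, and the soil surface was sprayed with a water-diluted emulsion of the compound at a predetermined rate. Plants grew in a greenhouse at 25° C. to 30° C.; effects were scored visually 3 weeks after application.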

[2] = tested on: Echinochloa oryzacola Vasing.; experiment: Test Example 1: herbicidal activity, application before weed generation in submerged conditions (symbol A)
In short: as §4

rice plant = experiment: Test Example 5: effect on crop by foliage application, plastic box (symbol b); settings: 3 weeks after application
In short: (§6)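 Foliage-application test plants come from spot sowing in sterilized diluvial soil under a soil layer of about 1.5 cm, grown at 25° C. to 30° C. in a greenhouse.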

beet = experiment: Test Example 4: effect on crop by soil treatment (symbol f)
In short: as §2

Chenopodium album = experiment: Test Example 5: herbicidal effect by foliage application, plastic box (symbol O); settings: 3 weeks after application
In short: as §1

Leptochloa chinensis = experiment: Test Example 3: herbicidal effect by foliage application, Wagner pot (symbol D); settings: for D (Leptochloa chinensis) herbicidal effect grade: Table 24
In short: as §3

Abutilon theophrasti = experiment: Test Example 5: herbicidal effect by foliage application, plastic box (symbol M); settings: 3 weeks after application
In short: as §1

rapeseed = experiment: Test Example 4: effect on crop by soil treatment (symbol g)
In short: as §2

Galium spurium = experiment: Test Example 4: herbicidal effect by soil treatment (symbol Q)
Description: Herbicidal Effect Test by Soil Treatment
Sterilized diluvial soil was placed in a plastic box having a length of 21 cm, a width of 13 cm, and a depth of 7 cm. Each of the seeds of Digitaria ciliaris, Setaria viridis, Echinochloa crus-galli var. crus-galli, Avena fatua, Alopecurus myosuroides, Lolium multiflorum Lam., Apera spica-venti, Abutilon theophrasti, Amaranthus retroflexus, Chenopodium album, Stellaria media, Galium spurium, Veronica persica, corn, soybean, rice, wheat, beet, and rapeseed was sowed in a spot-like manner and was covered with the soil of a thickness of about 1.5 cm. Subsequently, the emulsion agent of the compound present invention prepared in accordance with Formulation Example 2 was diluted with water so as to be a predetermined herbicide amount and the diluted emulsion agent was uniformly applied to the surface of the soil with a small-size spray. The plastic box was placed in a greenhouse of 25° C. to 30° C. to grow plant. 3 weeks later from the herbicide application, the effect to each plant was investigated in accordance with the criteria of Test Example 1.

Stellaria media = experiment: Test Example 5: herbicidal effect by foliage application, plastic box (symbol P); settings: 3 weeks after application
In short: as §1

wheat [3] = experiment: Test Example 5: effect on crop by foliage application, plastic box (symbol e); settings: 3 weeks after application
In short: as §6

Lolium multiflorum Lam. = experiment: Test Example 4: herbicidal effect by soil treatment (symbol K)
In short: as §5

[4] = application herbicide amount 320 g/ha
[5] = application herbicide amount 269 g/ha

## CON=C(C)CC1CC(OC(=O)N(C)C)=C(c2c(C)cc(C)cc2C)C1=O (stereo not drawn) [1-108]
Apera spica-venti; 320 g/ha
  L: Apera spica-venti, herbicidal effect (criteria 0-5): 5 (Herbicidal ratio of 90% or more (almost completely withered))
Wheat [1]; 320 g/ha
  e: wheat, effect grade on crop: 4 (Herbicidal ratio of 70% or higher and lower than 90%)
Cyperus difformis; [4]
  herbicidal effect on E, grade 0-5: 5 (Herbicidal ratio of 90% or more (almost completely withered))
Monochoria vaginalis; [4]
  Herbicidal effect grade, C: Monochoria vaginalis: 3 (Herbicidal ratio of 40% or higher and lower than 70%)
rice; 320 g/ha
  b: directly sowed rice plant, effect grade on crop: 5 (Herbicidal ratio of 90% or more (almost completely withered))
Avena fatua; 320 g/ha
  I: Avena fatua, herbicidal effect (criteria 0-5): 5 (Herbicidal ratio of 90% or more (almost completely withered))
Amaranthus retroflexus; 320 g/ha
  N: Amaranthus retroflexus, herbicidal effect grade: 0 (Herbicidal ratio of 5% or lower (almost no effect))
[2]; [4]
  Herbicidal effect grade, A: Echinochloa oryzacola Vasing.: 5 (Herbicidal ratio of 90% or more (almost completely withered))
Rice plant; 320 g/ha
  b: directly sowed rice plant, effect on crop (criteria 0-5): 5 (Herbicidal ratio of 90% or more (almost completely withered))
beet; 320 g/ha
  f: beet, effect grade on crop: 0 (Herbicidal ratio of 5% or lower (almost no effect))
Chenopodium album; 320 g/ha
  O: Chenopodium album, herbicidal effect (criteria 0-5): 0 (Herbicidal ratio of 5% or lower (almost no effect))
Leptochloa chinensis; [4]
  herbicidal effect on D (Leptochloa chinensis), grade 0-5: 5 (Herbicidal ratio of 90% or more (almost completely withered))
Abutilon theophrasti; 320 g/ha
  M: Abutilon theophrasti, herbicidal effect (criteria 0-5): 4 (Herbicidal ratio of 70% or higher and lower than 90%)
rapeseed; 320 g/ha
  g: rapeseed, effect grade on crop: 4 (Herbicidal ratio of 70% or higher and lower than 90%)
Galium spurium; 320 g/ha
  Q: Galium spurium, herbicidal effect grade: 0 (Herbicidal ratio of 5% or lower (almost no effect))
Stellaria media; 320 g/ha
  P: Stellaria media, herbicidal effect (criteria 0-5): 3 (Herbicidal ratio of 40% or higher and lower than 70%)
Wheat [3]; 320 g/ha
  e: wheat, effect on crop (criteria 0-5): 3 (Herbicidal ratio of 40% or higher and lower than 70%)
Lolium multiflorum Lam.; 320 g/ha
  K: Lolium multiflorum Lam., herbicidal effect grade: 5 (Herbicidal ratio of 90% or more (almost completely withered))

## Cc1cc(Br)cc(C)c1C1=C(O)CC(CC(=NOCC(F)(F)F)C2CC2)C1=O (stereo not drawn) [9-009]
Apera spica-venti; 320 g/ha
  L: Apera spica-venti, herbicidal effect grade: 5 (Herbicidal ratio of 90% or more (almost completely withered))
Wheat [1]; [4]
  Effect on crop grade, e: wheat: 0 (Herbicidal ratio of 5% or lower (almost no effect))
Cyperus difformis; [4]
  E herbicidal effect grade: 4 (Herbicidal ratio of 70% or higher and lower than 90%)
Monochoria vaginalis; [4]
  C (Monochoria vaginalis) herbicidal effect grade: 0 (Herbicidal ratio of 5% or lower (almost no effect))
rice; [4]
  Effect on crop grade, b: directly sowed rice plant: 0 (Herbicidal ratio of 5% or lower (almost no effect))
Avena fatua; 320 g/ha
  I: Avena fatua, herbicidal effect grade: 5 (Herbicidal ratio of 90% or more (almost completely withered))
Amaranthus retroflexus; [4]
  Herbicidal effect grade, N: Amaranthus retroflexus: 0 (Herbicidal ratio of 5% or lower (almost no effect))
[2]; [4]
  A (Echinochloa oryzacola Vasing.) herbicidal effect grade: 4 (Herbicidal ratio of 70% or higher and lower than 90%)
Rice plant; 320 g/ha
  b: directly sowed rice plant, effect on crop grade: 5 (Herbicidal ratio of 90% or more (almost completely withered))
beet; [4]
  Effect on crop grade, f: beet: 0 (Herbicidal ratio of 5% or lower (almost no effect))
Chenopodium album; 320 g/ha
  O: Chenopodium album, herbicidal effect grade: 0 (Herbicidal ratio of 5% or lower (almost no effect))
Leptochloa chinensis; [4]
  D (Leptochloa chinensis) herbicidal effect grade: 5 (Herbicidal ratio of 90% or more (almost completely withered))
Abutilon theophrasti; 320 g/ha
  M: Abutilon theophrasti, herbicidal effect grade: 0 (Herbicidal ratio of 5% or lower (almost no effect))
rapeseed; [4]
  Effect on crop grade, g: rapeseed: 0 (Herbicidal ratio of 5% or lower (almost no effect))
Galium spurium; [4]
  Herbicidal effect grade, Q: Galium spurium: 0 (Herbicidal ratio of 5% or lower (almost no effect))
Stellaria media; 320 g/ha
  P: Stellaria media, herbicidal effect grade: 0 (Herbicidal ratio of 5% or lower (almost no effect))
Wheat [3]; 320 g/ha
  e: wheat, effect on crop grade: 0 (Herbicidal ratio of 5% or lower (almost no effect))
Lolium multiflorum Lam.; [4]
  Herbicidal effect grade, K: Lolium multiflorum Lam.: 5 (Herbicidal ratio of 90% or more (almost completely withered))

## CON=C(CC1CC(O)=C(c2c(C)cc(C)cc2OC)C1=O)C1CC1 (mixture of isomers) [13-002]
Apera spica-venti; 320 g/ha
  L: Apera spica-venti, herbicidal effect grade: 5 (Herbicidal ratio of 90% or more (almost completely withered))
Wheat [1]; [4]
  e: wheat, effect on crop grade: 3 (Herbicidal ratio of 40% or higher and lower than 70%)
Cyperus difformis; [4]
  E herbicidal effect grade: 5 (Herbicidal ratio of 90% or more (almost completely withered))
Monochoria vaginalis; [4]
  C (Monochoria vaginalis) herbicidal effect grade: 0 (Herbicidal ratio of 5% or lower (almost no effect))
rice; [4]
  b: directly sowed rice plant, effect on crop grade: 5 (Herbicidal ratio of 90% or more (almost completely withered))
Avena fatua; 320 g/ha
  I: Avena fatua, herbicidal effect grade: 5 (Herbicidal ratio of 90% or more (almost completely withered))
Amaranthus retroflexus; [4]
  N: Amaranthus retroflexus, herbicidal effect grade: 0 (Herbicidal ratio of 5% or lower (almost no effect))
[2]; [4]
  A (Echinochloa oryzacola Vasing.) herbicidal effect grade: 5 (Herbicidal ratio of 90% or more (almost completely withered))
Rice plant; 320 g/ha
  b: directly sowed rice plant, effect on crop grade: 5 (Herbicidal ratio of 90% or more (almost completely withered))
beet; [4]
  f: beet, effect on crop grade: 0 (Herbicidal ratio of 5% or lower (almost no effect))
Chenopodium album; 320 g/ha
  O: Chenopodium album, herbicidal effect grade: 5 (Herbicidal ratio of 90% or more (almost completely withered))
Leptochloa chinensis; [4]
  D (Leptochloa chinensis) herbicidal effect grade: 5 (Herbicidal ratio of 90% or more (almost completely withered))
Abutilon theophrasti; 320 g/ha
  M: Abutilon theophrasti, herbicidal effect grade: 2 (Herbicidal ratio of 20% or higher and lower than 40%)
rapeseed; [4]
  g: rapeseed, effect on crop grade: 1 (Herbicidal ratio of 5% or higher and lower than 20%)
Galium spurium; [4]
  Q: Galium spurium, herbicidal effect grade: 0 (Herbicidal ratio of 5% or lower (almost no effect))
Stellaria media; 320 g/ha
  P: Stellaria media, herbicidal effect grade: 3 (Herbicidal ratio of 40% or higher and lower than 70%)
Wheat [3]; 320 g/ha
  e: wheat, effect on crop grade: 5 (Herbicidal ratio of 90% or more (almost completely withered))
Lolium multiflorum Lam.; [4]
  K: Lolium multiflorum Lam., herbicidal effect grade: 5 (Herbicidal ratio of 90% or more (almost completely withered))

## CC(=O)C(C)C1CC(O)=C(c2c(C)cc(C)cc2C)C1=O (stereo not drawn) [2-005]
Apera spica-venti; 269 g/ha
  L: Apera spica-venti, herbicidal effect grade: 3 (Herbicidal ratio of 40% or higher and lower than 70%)
Wheat [1]; [5]
  e: wheat, effect on crop grade: 0 (Herbicidal ratio of 5% or lower (almost no effect))
Cyperus difformis; [5]
  herbicidal effect on E, grade 0-5: 4 (Herbicidal ratio of 70% or higher and lower than 90%)
Monochoria vaginalis; [5]
  Herbicidal effect grade, C: Monochoria vaginalis: 0 (Herbicidal ratio of 5% or lower (almost no effect))
rice; [5]
  b: directly sowed rice plant, effect on crop grade: 5 (Herbicidal ratio of 90% or more (almost completely withered))
Avena fatua; 269 g/ha
  I: Avena fatua, herbicidal effect grade: 3 (Herbicidal ratio of 40% or higher and lower than 70%)
Amaranthus retroflexus; [5]
  N: Amaranthus retroflexus, herbicidal effect grade: 0 (Herbicidal ratio of 5% or lower (almost no effect))
[2]; [5]
  Herbicidal effect grade, A: Echinochloa oryzacola Vasing.: 3 (Herbicidal ratio of 40% or higher and lower than 70%)
Rice plant; 269 g/ha
  b: directly sowed rice plant, effect on crop grade: 5 (Herbicidal ratio of 90% or more (almost completely withered))
beet; [5]
  f: beet, effect on crop grade: 0 (Herbicidal ratio of 5% or lower (almost no effect))
Chenopodium album; 269 g/ha
  O: Chenopodium album, herbicidal effect grade: 0 (Herbicidal ratio of 5% or lower (almost no effect))
Leptochloa chinensis; [5]
  herbicidal effect on D (Leptochloa chinensis), grade 0-5: 5 (Herbicidal ratio of 90% or more (almost completely withered))
Abutilon theophrasti; 269 g/ha
  M: Abutilon theophrasti, herbicidal effect grade: 0 (Herbicidal ratio of 5% or lower (almost no effect))
rapeseed; [5]
  g: rapeseed, effect on crop grade: 4 (Herbicidal ratio of 70% or higher and lower than 90%)
Galium spurium; [5]
  Q: Galium spurium, herbicidal effect grade: 0 (Herbicidal ratio of 5% or lower (almost no effect))
Stellaria media; 269 g/ha
  P: Stellaria media, herbicidal effect grade: 0 (Herbicidal ratio of 5% or lower (almost no effect))
Wheat [3]; 269 g/ha
  e: wheat, effect on crop grade: 0 (Herbicidal ratio of 5% or lower (almost no effect))
Lolium multiflorum Lam.; [5]
  K: Lolium multiflorum Lam., herbicidal effect grade: 5 (Herbicidal ratio of 90% or more (almost completely withered))
